Data as given in US8778966B2, “Quinolinone derivatives as PARP and tank inhibitors” (Janssen Pharmaceutica, NV, priority 2007, dated 2014).
pIC50: −log10 of the molar value. Read-outs that look alike come from different tables or passages of the source.

How the values were obtained:
[1] = target: T1, TANK-2 enzyme (Homo sapiens, UniProt Q9H2K2); assay: In vitro Scintillation Proximity Assay (SPA) for TANK-2 inhibitory activity; assay type: biochemical; conditions: for IC50: read-out: in vitro SPA assay TANK-2 pIC50 (converted)
T1 construct: made in house
T1 sequence (Q9H2K2 1-1166): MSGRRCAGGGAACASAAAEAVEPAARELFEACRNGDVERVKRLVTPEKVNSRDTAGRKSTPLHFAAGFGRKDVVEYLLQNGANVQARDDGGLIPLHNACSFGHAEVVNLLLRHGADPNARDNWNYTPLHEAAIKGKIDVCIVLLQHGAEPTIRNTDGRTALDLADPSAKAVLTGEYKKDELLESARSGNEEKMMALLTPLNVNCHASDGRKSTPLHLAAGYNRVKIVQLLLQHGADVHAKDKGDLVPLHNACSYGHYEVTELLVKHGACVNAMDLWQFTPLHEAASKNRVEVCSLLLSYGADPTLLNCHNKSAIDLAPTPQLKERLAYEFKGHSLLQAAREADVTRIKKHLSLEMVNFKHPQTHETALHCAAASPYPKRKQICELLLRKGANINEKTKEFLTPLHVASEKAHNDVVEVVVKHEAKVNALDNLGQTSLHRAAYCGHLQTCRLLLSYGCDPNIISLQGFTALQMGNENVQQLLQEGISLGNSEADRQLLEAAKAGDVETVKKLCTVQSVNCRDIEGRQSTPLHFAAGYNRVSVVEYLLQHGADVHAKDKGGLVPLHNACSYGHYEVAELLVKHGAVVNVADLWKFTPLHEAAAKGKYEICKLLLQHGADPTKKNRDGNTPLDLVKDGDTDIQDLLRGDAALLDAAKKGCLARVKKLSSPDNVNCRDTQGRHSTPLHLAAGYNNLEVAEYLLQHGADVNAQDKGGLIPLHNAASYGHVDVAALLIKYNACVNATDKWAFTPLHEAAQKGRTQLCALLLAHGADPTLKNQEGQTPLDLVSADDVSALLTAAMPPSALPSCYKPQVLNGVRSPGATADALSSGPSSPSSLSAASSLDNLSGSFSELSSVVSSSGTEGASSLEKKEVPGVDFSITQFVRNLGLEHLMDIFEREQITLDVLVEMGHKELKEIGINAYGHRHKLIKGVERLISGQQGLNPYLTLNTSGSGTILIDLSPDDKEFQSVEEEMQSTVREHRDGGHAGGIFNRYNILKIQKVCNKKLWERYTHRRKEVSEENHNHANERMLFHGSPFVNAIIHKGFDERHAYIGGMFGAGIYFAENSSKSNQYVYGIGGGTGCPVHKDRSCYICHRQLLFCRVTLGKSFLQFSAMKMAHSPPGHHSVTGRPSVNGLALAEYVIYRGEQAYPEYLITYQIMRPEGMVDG
Method in brief: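 Results are pIC50 values, with IC50 interpolated linearly around 50% of blank-subtracted control cpm. They come from a scintillation proximity read of TANK-2 (8 μg/ml) self-modification with [3H]-NAD+/NAD, incubated 120 min at room temperature in pH 7.4 Tris buffer containing MgCl2 and DTT. Compounds were first screened at 10^−5 M.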

[2] = test system: tubulin; assay: Tubulin polymerization assay; assay type: biochemical; parameters: key: a compound showing 0 to 50% inhibition at 20 μM is reported as score 1; Score 2 compounds are defined as compound showing more than 50% inhibition at 20 μM and less than 50% inhibition at 5 μM; a compound showing more than 50% inhibition at 5 μM is reported as score 3; conditions: tested at 20 μM and 5 μM
Method in brief: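 Cytoskeleton kit tubulin was run in a 10 µl final volume at 37 °C, with fluorescence read every minute for 1 h. Polymerization was taken as the maximum slope (4-point linear regression) and expressed as % of no-compound control. Compounds were tested at 20 µM, then at 5 µM if inhibition exceeded 50%, and scored by % inhibition.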

Row | Compound | IC50 [1] | melting point | pIC50 ([1]; in vitro SPA assay TANK-2 pIC50) | tubulin polymerisation score [2]
1 | CCc1cc2ccc(C(C)(C#N)Cc3cccc(N4CCC(N(C)C)C4)n3)cc2[nH]c1=O (stereo not drawn) [Compound 209] | 501 nM | 154 °C | – | –
2 | CCc1cc2ccc(C(C)(C#N)Cc3nc(N(C)C)cc(N(C)C)n3)cc2[nH]c1=O (stereo not drawn) [Compound 205] | 200 nM | 194 °C | – | –
3 | CCc1cc2ccc(C(C)(C#N)Cc3nc(C#N)cc(OC)n3)cc2[nH]c1=O (single isomer, unassigned) [Compound 204] | – | 180 °C | 6.80 | –
4 | CCc1cc2ccc(C(C)(C#N)Cc3cccc(C#Cc4cncn4C)n3)cc2[nH]c1=O (stereo not drawn) [Compound 217] | 158 nM | 111 °C | – | –
5 | CCc1cc2ccc(C(C)(C#N)Cc3cccc(CCS(C)(=O)=O)c3)cc2[nH]c1=O (stereo not drawn) [Compound 178] | 200 nM | 150 °C | – | –
6 | CCc1cc2ccc(C(C#N)(Cc3ccccc3)c3ccc(C#N)cc3)cc2[nH]c1=O (stereo not drawn) [Compound 26] | 251 nM | 255 °C | – | –
7 | CCc1cc2ccc(C(C)(C#N)CN3CCN(c4ccccn4)CC3)cc2[nH]c1=O (stereo not drawn) [Compound 233] | 158 nM | 209 °C | – | 1 (a compound showing 0 to 50% inhibition at 20 μM is reported as score 1)
8 | CCc1cc2ccc(C(C#N)(Cc3ccccc3)c3ccccc3)cc2[nH]c1=O (stereo not drawn) [Compound 27] | 631 nM | 229 °C | – | –
9 | CCCC(C#N)(Cc1ccccc1)c1ccc2cc(CC)c(=O)[nH]c2c1 (stereo not drawn) [Compound 31] | 251 nM | 210 °C | – | –
10 | CCc1cc2ccc(C(C)(C#N)Cc3cccc(-c4ccc[nH]4)c3)cc2[nH]c1=O (stereo not drawn) [Compound 176] | 158 nM | 194 °C | – | –
11 | CCc1cc2c(OC)cc(C(C)(C#N)Cc3nc(OC)cc(OC)n3)cc2[nH]c1=O (stereo not drawn) [Compound 229] | 10 nM | 180 °C | – | –
12 | CCc1cc2ccc(C(C)(C#N)Cc3cccc(OCCCN4CCNCC4)c3)cc2[nH]c1=O (stereo not drawn) [Compound 25] | 50.1 nM | 50 °C | – | –
13 | CCc1cc2ccc(C(C)(C#N)Cc3cccc(OCCC#N)c3)cc2[nH]c1=O (stereo not drawn) [Compound 195] | 398 nM | 161 °C | – | 1 (a compound showing 0 to 50% inhibition at 20 μM is reported as score 1)
14 | CCc1cc2ccc(C(C)(C#N)Cc3cccc(OCCCC#N)c3)cc2[nH]c1=O (stereo not drawn) [Compound 194] | 126 nM | 148 °C | – | 2
15 | CCc1cc2ccc(C(C)(C#N)Cc3nc(Cl)cc(OC)n3)cc2[nH]c1=O (stereo not drawn) [Compound 202] | 251 nM | 162 °C | – | 2
16 | CCc1cc2ccc(C(C)(C#N)Cc3cccc(OCCS(C)(=O)=O)c3)cc2[nH]c1=O (stereo not drawn) [Compound 201] | 200 nM | 55 °C | – | –

Row | Compound | IC50 [1] | melting point | pIC50 ([1]; in vitro SPA assay TANK-2 pIC50) | tubulin polymerisation score [2]
17 | CCc1cc2ccc(C(C)(C#N)Cc3cccc(/C=N/OC)c3)cc2[nH]c1=O (stereo not drawn) [Compound 185] | 158 nM | 170 °C | – | –
18 | C#CCOc1cccc(CC(C)(C#N)c2ccc3cc(CC)c(=O)[nH]c3c2)c1 (stereo not drawn) [Compound 196] | 316 nM | 141 °C | – | 2
19 | CCOc1cccc(CC(C)(C#N)c2ccc3cc(CC)c(=O)[nH]c3c2)c1 (stereo not drawn) [Compound 285] | 251 nM | – | – | 2
20 | CCc1cc2ccc(C(C)(C#N)Cc3cc(OC)c(OC)c(OC)c3)cc2[nH]c1=O (stereo not drawn) [Compound 289] | 251 nM | – | – | 2
21 | CCc1cc2ccc(C(C)(C#N)Cc3cccc(C#N)[n+]3[O-])cc2[nH]c1=O (stereo not drawn) [Compound 228] | 15.8 nM | 121 °C | – | –
22 | CCc1cc2c(OC)cc(C(C)(C#N)Cc3nc(OC)cc(OC)n3)cc2[nH]c1=O (single isomer, unassigned) [Compound 230] | 20 nM | – | – | 1 (a compound showing 0 to 50% inhibition at 20 μM is reported as score 1)
23 | CCc1cc2ccc(C(C#N)(Cc3ccccc3)C3CC3)cc2[nH]c1=O (stereo not drawn) [Compound 29] | 31.6 nM | 186 °C | – | –
24 | CCc1cc2ccc([C@@](C)(C#N)CCOc3ccc(C#N)cc3)cc2[nH]c1=O (single isomer, unassigned) [Compound 273] | 100 nM | – | – | 2
25 | CCc1cc2ccc(C(C)(C#N)Cc3cc(OC)ccc3F)cc2[nH]c1=O (stereo not drawn) [Compound 171] | 200 nM | 160 °C | – | –
26 | CCc1cc2ccc(C(C)(C#N)CN(C)Cc3ccc(C#N)cc3)cc2[nH]c1=O (stereo not drawn) [Compound 300] | 398 nM | – | – | 1 (a compound showing 0 to 50% inhibition at 20 μM is reported as score 1)
27 | CCc1cc2ccc(C(C)(C#N)Cc3nc(OC)cc(N(C)C)n3)cc2[nH]c1=O (stereo not drawn) [Compound 355] | 158 nM | – | – | 2
28 | CCc1cc2ccc(C(C)(C#N)Cc3cccc4c3CCN4)cc2[nH]c1=O (stereo not drawn) [Compound 237] | 126 nM | 210 to 211 °C | – | –
29 | CCc1cc2ccc([C@](C)(C#N)Cc3cc(OC)nc(C)n3)cc2[nH]c1=O (single isomer, unassigned) [Compound 362] | 126 nM | – | – | 2
30 | CCc1cc2ccc(C(C)(C#N)Cc3nc(C#N)cc(N(C)C)n3)cc2[nH]c1=O (stereo not drawn) [Compound 318] | 126 nM | – | – | 1 (a compound showing 0 to 50% inhibition at 20 μM is reported as score 1)
31 | CCc1cc2ccc(C(C)(C#N)Cc3cccc(N(C)CCc4ccccc4)n3)cc2[nH]c1=O.Cl (stereo not drawn) [Compound 220] | 1000 nM | 99 °C | – | –
32 | CCc1cc2ccc(C(C#N)(Cc3ccccc3)C(C)C)cc2[nH]c1=O (stereo not drawn) [Compound 30] | 794 nM | 234 °C | – | –
